Results on 31 molecules are retold here after patent US20230390274A1 (EPIRIUM BIO INC., priority 2020, published 2023).

The structures appear in SMILES notation. ≈ marks a conversion by molar mass, not a printed value. Like-named read-outs stand apart in the source and are kept apart here.

Series [1] can be described thus: Pharmacokinetic study in mice, intravenous 1 mg/kg. It is filed as in vivo, C57BL/6 mice. How it is done:
(§1) Each mice PK study consisted of nine male C57BL/6 mice per group with sparse sampling design (n=3 mice per time point). The animals from intravenous groups were dosed with solution formulation of compounds via tail vein at 1 mg/kg dose. Ten compounds were screened in mice and one compound (the compound of Formula IV) was dosed in rat (n=3; serial sampling) following intravenous dose administration at 1 mg/kg dose. The solution formulation for compounds was prepared in 5% v/v DMA, 25% v/v PEG-400, and 70% v/v HPBCD (30% w/v); 15% v/v DMA, 5% Solutol HS-15, and 80% 1:1 PEG-300: Normal saline (2.25%); or 10% v/v DMA, 25% PEG-400, and 65% HPBCD (30% w/v solution). The dosing volume was 1 and 5 mL/kg for intravenous dose in rat and mice respectively. Blood samples (approximately 60 μL from mice and 120 μL from rats) were collected under light isoflurane anesthesia from a set of three mice at 0, 0.08, 0.25, 0.5, 1, 2, 4, 8, 12, and 24 hours post-dose. Plasma was harvested by centrifugation of blood and stored at −70±10° C. until analysis. Fit-for purpose LC-MS/MS method was developed and samples were processed by protein precipitation method. Non-Compartmental-Analysis tool of Phoenix WinNonlinR (Version 8.0) was used to assess the pharmacokinetic parameters. The areas under the concentration time curve (AUClast and AUCinf) were calculated by linear trapezoidal rule. The terminal elimination rate constant, Ke was determined by regression analysis of the linear terminal portion of the log plasma concentration-time curve. The terminal half-life (T1/2) was estimated at 0.693/ke. CLIV=Dose/AUCinf; Vss=MRT×CLIV.

Series [2] is described as follows: Compound stability in mouse liver microsomes. It is filed as in vitro ADME. The note with it: 37° C. On the procedure: A microsomal mixture comprising mouse liver microsomes and a potassium phosphate buffer was prepared at a concentration of 1.428 mg/mL in 2 mL tubes. 1.6 μL of test compound or imipramine as a positive control was added to the mixture, and 70 μL was transferred to a 96 well plate and pre-incubated at 37° C. for 5 minutes. After pre-incubation, […] 30 μL of NADPH (3.33 mM in potassium phosphate buffer) was added. The reaction mixtures were incubated at 37° C. for 15 and 45 minutes. Reactions without NADPH and buffer controls (minus NADPH) were conducted to rule out non-NADPH metabolism and chemical instability in the incubation buffer. The reactions were quenched with 100 μL ice cold acetonitrile containing an internal standard. The plates were centrifuged at 4000 RPM for 15 minutes and 100 μL aliquots were analyzed for parent compound disappearance by LC-MS/MS. The peak area ratios of analyte versus internal standard were used to calculate the percent remaining at the end of 45 minutes.

The nature of series [3]: Pharmacokinetic study in rat, intravenous 1 mg/kg. The class given is in vivo. On the procedure: as §1
A short description of series [4]: Solubility at pH 7.4. The class given is physicochemical. The note with it: aqueous buffer, Table 1, 6-5 ring core.
In series [5] the target is 15-PGDH/HPGD (Homo sapiens (Human), UniProt P15428). Nature of the series: hPGDH inhibitor screening biochemical assay. The method, boiled down:
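10 nM recombinant 15-PGDH was preincubated with compound (10-point) for 10 min at 37° C. in 50 mM Tris-HCl pH 7.5, 0.01% Tween 20. Then 15 μM PGE2 and 0.25 mM NAD+ were added for 10 min at rt. NADH fluorescence (ex/em 340/485 nm) gave % inhibition versus 1% DMSO and a four-parameter IC50.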

Setting [6] is: Table 1, PGDH inhibitors with a 6-5 ring core, read-out: hPGDH: IC50.
Setting [7] is: 10 nM 15-PGDH/HPGD, 15 μM PGE2, 0.25 mM NAD, read-out: hPGDH: Average IC50.

15-PGDH/HPGD, sequence (P15428 whole entry): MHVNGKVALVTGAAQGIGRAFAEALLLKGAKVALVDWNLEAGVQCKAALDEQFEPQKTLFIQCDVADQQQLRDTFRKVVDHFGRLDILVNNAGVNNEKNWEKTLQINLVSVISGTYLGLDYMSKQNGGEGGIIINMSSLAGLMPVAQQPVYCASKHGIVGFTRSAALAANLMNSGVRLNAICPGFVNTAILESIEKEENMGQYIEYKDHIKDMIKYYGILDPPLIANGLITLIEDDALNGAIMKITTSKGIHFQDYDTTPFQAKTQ

The term Vss denotes a proportionality between amount in the body and measured concentration, not a real space. A higher Vss goes with wide distribution into tissue. Turning to `CNC(=O)c1ccc(-n2ccc3cc(C(=O)N4CCC(F)CC4)cnc32)cc1` [Formula VII], in series [1], the AUCinf was determined as 214.11 ng·h/mL, the AUClast was 211.95 ng·h/mL, the C0/Cmax amounted to 633.31 ng/mL and the CL was found to be 77.84 mL/min/kg. In series [1], this molecule gave a T1/2 of 20.4 min and a Vss of 1.56 L/kg. Further, the “% Remaining at 45 Minutes (Mouse Liver Microsomes + NADPH)” value (“% Remaining at 45 Minutes” below) in series [2] came out at 88%.

For `O=C(c1cnc2c(ccn2-c2ccc(CO)cc2)c1)N1CCCCC1` [Formula IV], in series [3], the AUCinf came out at 106.55 ng·h/mL, the AUClast is 105.58 ng·h/mL, the C0/Cmax amounted to 985.98 ng/mL and the CL amounted to 158.60 mL/min/kg. Further, in series [3], the T1/2 was 7.2 min and the Vss is on record as 0.86 L/kg. Moreover, the “% Remaining at 45 Minutes” value in series [2] stood at 71%.

In series [1], `NC(=O)c1ncc(-n2ccc3cc(C(=O)N4CCCCC4)cnc32)cn1` [Formula XII] showed an AUCinf of 129.4 ng·h/mL, an AUClast of 117.19 ng·h/mL, a C0/Cmax of 490.48 ng/mL and a CL of 128.8 mL/min/kg. In series [1], this molecule returned a T1/2 of 38.4 min and a Vss of 5.16 L/kg. Also, the “% Remaining at 45 Minutes” value in series [2] came to 81%.

As usually defined, the solubility is the dissolved amount per volume that the medium holds. Low readings indicate a poorly soluble substance, high ones a readily soluble substance. Broadly, the IC50 is the concentration that inhibits the measured activity by half. `O=C(c1cnc2c(c1)ncn2-c1cccc(Cl)c1)N1CCCCC1` [drawing 103]: the solubility in series [4] turned out to be 21 µM (≈ 7.16 µg/mL). In addition, in series [5] (setting [6]), the IC50 was found to be 1.5 nM.

In series [1], `COCCNC(=O)c1ccc(-n2ccc3cc(C(=O)N4CCC(F)CC4)cnc32)cc1` [Formula XI] came in with an AUCinf of 131.66 ng·h/mL, an AUClast of 130.44 ng·h/mL, a C0/Cmax of 663.41 ng/mL and a CL of 126.59 mL/min/kg. In series [1], this molecule had a T1/2 of 9.6 min and a Vss of 1.39 L/kg. Also, in series [2], the “% Remaining at 45 Minutes” value is 84%.

Turning to `O=C(c1cnc2c(ccn2-c2ccc(O)nc2)c1)N1CCCCC1` [Formula XIV], in series [1], the AUCinf was 96.33 ng·h/mL, the AUClast is 88.28 ng·h/mL, the C0/Cmax came out at 165.86 ng/mL and the CL is recorded as 173.02 mL/min/kg. Also, in series [1], the T1/2 worked out at 16.2 min and the Vss is 3.99 L/kg. In addition, the “% Remaining at 45 Minutes” value in series [2] was 74%.

Consider `CN(C)C(=O)c1ccc(-n2ccc3cc(C(=O)N4CCCCC4)cnc32)cc1` [Formula V], for which, in series [1], the AUCinf came out at 263.35 ng·h/mL, the AUClast was determined as 262.46 ng·h/mL, the C0/Cmax is on record as 1442.49 ng/mL and the CL was 63.29 mL/min/kg. In addition, in series [1], the T1/2 came out at 18 min and the volume of distribution (Vss) came to 0.76 L/kg. Also, the “% Remaining at 45 Minutes” value in series [2] is 86%.

With `CNC(=O)c1ccc(-n2ccc3cc(C(=O)N4CCCCC4)cnc32)cc1` [Formula VIII], in series [1], the AUCinf came to 156.49 ng·h/mL, the AUClast worked out at 156.43 ng·h/mL, the C0/Cmax is on record as 1012.93 ng/mL and the CL was 106.5 mL/min/kg. In addition, in series [1], the T1/2 amounted to 26.4 min and the Vss was 1.58 L/kg. The “% Remaining at 45 Minutes” value in series [2] is listed as 80%.

In the case of `NC(=O)c1ccc(-n2ccc3cc(C(=O)N4CCC(F)CC4)cnc32)cc1` [Formula IX], in series [1], the AUCinf was determined as 156.23 ng·h/mL, the AUClast was found to be 156.13 ng·h/mL, the C0/Cmax was 749.07 ng/mL and the CL was 106.68 mL/min/kg. For the same molecule, in series [1], the T1/2 came to 12 min and the Vss is reported as 1.52 L/kg. The “% Remaining at 45 Minutes” value in series [2] was determined as 70%.

In series [1], `COCCNC(=O)c1ccc(-n2ccc3cc(C(=O)N4CCCCC4)cnc32)cc1` [Formula X] yielded an AUCinf of 147.4 ng·h/mL, an AUClast of 146.28 ng·h/mL, a C0/Cmax of 1272.79 ng/mL and a CL of 113.07 mL/min/kg. In series [1], the T1/2 came to 4.2 min and the Vss was found to be 0.58 L/kg. The “% Remaining at 45 Minutes” value in series [2] came to 89%.

`Cc1c(C(=O)N2CCC(F)CC2)cnc2c1ccn2-c1ccc(C(N)=O)cc1` [Formula VI]: in series [1], the AUCinf worked out at 259.43 ng·h/mL, the AUClast came out at 256.19 ng·h/mL, the C0/Cmax amounted to 571.21 ng/mL and the CL is recorded as 64.24 mL/min/kg. In series [1], this molecule came in with a T1/2 of 42 min and a Vss of 2.52 L/kg. Besides, the “% Remaining at 45 Minutes” value in series [2] was 89%.

On to `CCC(CC)NC(=O)c1ccc(-n2ccc3cc(C(=O)N4CCC(F)(F)CC4)cnc32)cn1` [A-239, 5-(5-(4,4-difluoropiperidine-1-carbonyl)-1H-pyrrolo[2,3-b]pyridin-1-yl)-N-(pentan-3-yl) picolinamide], for which the IC50 in series [5] (setting [7]) is below 100 nM.

On to `O=C(c1cnc2c(ccn2-c2ccc(-c3nn[nH]n3)cc2)c1)N1CCC(F)(F)CC1` [A-290, (1-(4-(2H-tetrazol-5-yl)phenyl)-1H-pyrrolo[2,3-b]pyridin-5-yl)(4,4-difluoropiperidin-1-yl)methanone], for which the IC50 in series [5] (setting [7]) is below 100 nM.

`O=C(c1cnc2c(ccn2-c2ccncn2)c1)N1CCCCC1` [A-43]: the IC50 in series [5] (setting [7]) is below 100 nM.

For the molecule `Cn1cc(-c2cccc(Cl)c2)c2ccc(C(=O)N3CCCCC3)cc21` [A-90, (3-(3-chlorophenyl)-1-methyl-1H-indol-6-yl)(piperidin-1-yl)methanone], the IC50 in series [5] (setting [7]) is below 100 nM.

Turning to `CC1(C)NC(=O)N(c2ccc(-n3ccc4cc(C(=O)N5CCC(F)(F)CC5)cnc43)cn2)C1=O` [A-255], in series [5] (setting [7]), the IC50 was below 100 nM.

For `N#Cc1ccc(-n2ccc3cc(C(=O)N4CCCCC4)cnc32)cc1` [A-147], in series [5] (setting [7]), the IC50 is below 100 nM.

In the case of `O=C(c1cnc2c(ccn2-c2ccccn2)c1)N1CCCCC1` [A-41], the IC50 in series [5] (setting [7]) was below 100 nM.

In the case of `O=C(c1cnc2c(ccn2-c2ccc3c(c2)OC(F)(F)O3)c1)N1CCCCC1` [A-317], the IC50 in series [5] (setting [7]) was below 100 nM.

Regarding `O=C(c1cnc2c(ccn2-c2cccc(-c3nn[nH]n3)c2)c1)N1CCC(F)(F)CC1` [A-291, (1-(3-(2H-tetrazol-5-yl)phenyl)-1H-pyrrolo[2,3-b]pyridin-5-yl)(4,4-difluoropiperidin-1-yl)methanone], in series [5] (setting [7]), the IC50 was below 100 nM.

As for `O=C(c1ccn2c(-c3cccc(Cl)c3)cnc2c1)N1CCCCC1` [drawing 93], the IC50 in series [5] (setting [6]) is 5.7 nM.

For the molecule `COc1cccc(-n2ccc3cc(C(=O)N4CCCCC4)cnc32)c1` [A-143], the IC50 in series [5] (setting [7]) was below 100 nM.

Turning to `CCc1nc2cc(C(=O)N3CCC(F)CC3)ccc2n1-c1ccc(OC)cc1` [A-306], in series [5] (setting [7]), the 50% inhibitory concentration (IC50) was below 100 nM.

On to `CC(C)(O)CNC(=O)c1cc(Cl)cc(-n2ccc3cc(C(=O)N4CCC(F)(F)CC4)cnc32)c1` [A-293], for which the IC50 in series [5] (setting [7]) was below 100 nM.

On to `CCOC(=O)c1nc2cc(C(=O)N3CCCCC3)ccc2n1-c1cccc(Cl)c1` [A-26], for which the IC50 in series [5] (setting [7]) was below 100 nM.

In the case of `O=C(c1cnc2c(c1)c(Cl)cn2-c1cnccn1)N1CCC(F)CC1` [A-295], the IC50 in series [5] (setting [7]) was below 100 nM.

For `O=C(c1ccc2c(c1)c(Cl)cn2-c1cccc(Cl)c1)N1CCCCC1` [A-88], the IC50 in series [5] (setting [7]) was below 100 nM.

In the case of `COc1ccc(-n2ccc3cc(C(=O)N4CCCCC4)cnc32)cc1` [A-146], the IC50 in series [5] (setting [7]) was below 100 nM.

On to `O=C(c1cnc2c(ccn2-c2ccncn2)c1)N1CCC(F)CC1` [A-53], for which the IC50 in series [5] (setting [7]) is below 100 nM.

For the molecule `O=C(c1cnc2c(ccn2-c2cnccn2)c1)N1CCCCC1` [drawing 81], in series [5] (setting [6]), the IC50 amounted to 0.6 nM.

Consider `COc1ccccc1C(=O)N(C)c1ccc(C(=O)N2CCCCC2)cc1` [A-81], for which the IC50 in series [5] (setting [7]) is at least 1000 nM.
